How the values were obtained:
[1] = molecular target: human PDE9A (Homo sapiens, UniProt O76083); settings: concentrations of up to 100 micromolar (μM); cited from earlier work
[2] = molecular target: T1, Murine PDE9A (Mus musculus, UniProt O70628); settings: concentrations below 200 micromolar; cited from earlier work
T1 sequence (O70628 1-534): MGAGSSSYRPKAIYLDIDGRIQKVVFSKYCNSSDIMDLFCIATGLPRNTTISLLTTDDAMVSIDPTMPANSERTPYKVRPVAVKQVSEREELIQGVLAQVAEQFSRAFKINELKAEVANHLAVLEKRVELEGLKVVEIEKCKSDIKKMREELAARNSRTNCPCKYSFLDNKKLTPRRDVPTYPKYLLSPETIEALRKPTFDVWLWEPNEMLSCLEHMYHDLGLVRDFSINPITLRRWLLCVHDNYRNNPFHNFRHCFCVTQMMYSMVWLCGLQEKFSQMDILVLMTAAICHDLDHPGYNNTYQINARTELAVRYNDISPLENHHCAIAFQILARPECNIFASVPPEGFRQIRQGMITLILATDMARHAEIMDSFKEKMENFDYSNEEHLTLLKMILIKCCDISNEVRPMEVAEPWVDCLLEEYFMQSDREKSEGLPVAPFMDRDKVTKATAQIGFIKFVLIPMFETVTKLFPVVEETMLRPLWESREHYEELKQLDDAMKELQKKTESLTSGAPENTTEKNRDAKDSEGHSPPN

[3] = molecular target: T2, human PDE9A2 (Homo sapiens, UniProt O76083); test: PDE9A2 enzymatic activity assay (scintillation proximity assay); format: biochemical; settings: for inhibition at 10 µM: read-out: % Inhibition of PDE 9A2; for IC50: specific IC50 value is within the given range
T2 construct: made in house; host or cells: Sf9 insect cells (infected; crude lysate used as enzyme source)
Description: The PDE9A2 enzymatic activity assay was run as scintillation proximity assay (SPA), in general according to the protocol of the manufacturer (Amersham Biosciences, product number: TRKQ 7100).
As enzyme source, lysate (PBS with 1% Triton X-100 supplemented with protease inhibitors, cell debris removed by centrifugation at 13.000 rpm for 30 min) of SF 9 cell expressing the human PDE9A2 was used. The total protein amount included in the assay varied upon infection and production efficacy of the SF9 cells and lay in the range of 0.1-100 ng.
In general, the assay conditions were as follows: • total assay volume: 40 microliter • protein amount: 0.1-50 ng • substrate concentration (cGMP): 20 nanomolar; ˜1 mCi/1 • incubation time: 60 min at room temperature • final DMSO concentration: 0.2-1
The assays were run in 384-well format. The test reagents as well as the enzyme and the substrate were diluted in assay buffer. The assay buffer contained 50 mM Tris, 8.3 mM MgCl2, 1.7 mM EGTA, 0.1% BSA, 0.05% Tween 20; the pH of assay buffer was adjusted to 7.5. The reaction was stopped by applying a PDE9 specific inhibitor (e.g. compounds according to WO04099210 or WO04099211) in excess.
The activity of the positive control (minus the negative control=background) is set to 100% and activity in the presence of test compound is expressed relative to these 100%. Within this setting, an inhibition above 100% might be possible due to the nature of the variation of the positive control within the assay. In the following inhibition of PDE 9A2 is presented for a concentration at 10 μM, if not indicated otherwise.
IC50 can be calculated with GraphPadPrism or other suited software setting the positive control as 100 and the negative control as 0. For calculation of IC50 dilutions of the test compounds (substrates) are to be selected and tested following the aforementioned protocol.

T2 sequence (O76083 1-533 isoform O76083-2): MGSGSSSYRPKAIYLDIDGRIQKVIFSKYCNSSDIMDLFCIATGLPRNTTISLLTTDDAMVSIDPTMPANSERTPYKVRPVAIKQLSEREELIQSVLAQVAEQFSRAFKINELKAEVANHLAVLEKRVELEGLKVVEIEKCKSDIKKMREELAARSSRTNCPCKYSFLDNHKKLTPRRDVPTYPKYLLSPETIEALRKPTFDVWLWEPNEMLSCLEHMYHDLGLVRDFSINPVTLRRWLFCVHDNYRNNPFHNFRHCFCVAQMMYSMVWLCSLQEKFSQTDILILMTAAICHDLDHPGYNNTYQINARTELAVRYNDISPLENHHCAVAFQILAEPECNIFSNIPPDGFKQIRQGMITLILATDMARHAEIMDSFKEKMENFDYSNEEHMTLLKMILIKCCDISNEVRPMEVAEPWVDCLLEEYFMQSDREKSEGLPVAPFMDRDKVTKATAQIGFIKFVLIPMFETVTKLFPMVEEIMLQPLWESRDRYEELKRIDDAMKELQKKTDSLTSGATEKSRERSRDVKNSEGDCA
human PDE9A, sequence (O76083 whole entry): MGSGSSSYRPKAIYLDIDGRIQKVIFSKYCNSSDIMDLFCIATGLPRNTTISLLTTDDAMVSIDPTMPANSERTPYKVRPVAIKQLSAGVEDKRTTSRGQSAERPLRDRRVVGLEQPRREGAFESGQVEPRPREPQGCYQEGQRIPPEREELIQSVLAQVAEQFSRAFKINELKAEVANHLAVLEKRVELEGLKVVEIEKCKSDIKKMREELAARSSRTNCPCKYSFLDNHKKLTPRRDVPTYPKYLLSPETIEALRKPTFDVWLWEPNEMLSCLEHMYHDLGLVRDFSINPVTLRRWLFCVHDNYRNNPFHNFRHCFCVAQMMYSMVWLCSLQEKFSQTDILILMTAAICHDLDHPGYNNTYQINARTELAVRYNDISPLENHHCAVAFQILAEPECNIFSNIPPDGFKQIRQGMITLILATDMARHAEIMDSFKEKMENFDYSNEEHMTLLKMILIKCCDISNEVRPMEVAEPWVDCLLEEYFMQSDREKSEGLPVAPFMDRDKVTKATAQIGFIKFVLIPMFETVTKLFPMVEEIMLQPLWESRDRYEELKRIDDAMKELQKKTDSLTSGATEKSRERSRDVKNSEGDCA

SMILES	inhibition on the isolated enzyme [1]	inhibition of murine PDE9A [2]	inhibition at 10 µM ([3]; at 10 μM) [%]	IC50 [3] [nM]	% Inhibition of PDE 9A2 ([3]; at 10 μM) [%]
CCOC(=O)C1=C[C@]2(CC)CCCN3CCc4c(n1c1ccccc41)[C@@H]32 [vinpocetine]	no inhibition	–	–	–	–
COc1ccc(C2CNC(=O)C2)cc1OC1CCCC1 (centres unmarked) [rolipram]	no inhibition	–	–	–	–
CC(C)Cn1c(=O)n(C)c(=O)c2[nH]cnc21 [IBMX]	no inhibition	not inhibited	–	–	–
OCCN(CCO)c1nc(N2CCCCC2)c2nc(N(CCO)CCO)nc(N3CCCCC3)c2n1 [dipyridamole]	no inhibition	–	–	–	–
N#Cc1ccc(-c2ccc(F)cc2Cc2nc3c(cnn3C3CCC(F)(F)CC3)c(=O)[nH]2)cn1 [Example 57]	–	–	101	1 to 100	–
COc1cncc(-c2cc(F)ccc2Cc2nc3c(cnn3C3CCC(F)(F)CC3)c(=O)[nH]2)c1 [Example 67]	–	–	99	1 to 100	–
O=c1[nH]c(Cc2ccccc2-c2ccc(N3CCOCC3)nc2)nc2c1cnn2C1CCC(F)(F)CC1 [Example 75]	–	–	101	1 to 100	–
CC(=O)Nc1ccc(-c2c[nH]c(=O)cn2)cc1 [SKF94120]	no inhibition	–	–	–	–
CC(Cc1nc2c(cnn2C2CCC(F)(F)CC2)c(=O)[nH]1)C(F)(F)F (single isomer, unassigned) [Example 48]	–	–	–	101 to 1500	96
N#Cc1ccccc1Cc1nc2c(cnn2C2CCC(F)(F)CC2)c(=O)[nH]1 [Example 31]	–	–	99	1 to 100	–
O=c1[nH]c(Cc2ccccc2-c2ccnnc2)nc2c1cnn2C1CCC(F)(F)CC1 [Example 98]	–	–	100	1 to 100	–
O=c1[nH]c(Cc2ncccc2Br)nc2c1cnn2C1CCC(F)(F)CC1 [Example 46]	–	–	98	1 to 100	–
CC(Cc1nc2c(cnn2C2CCC(F)(F)CC2)c(=O)[nH]1)C(F)F (racemic) [Example 48-5]	–	–	93	101 to 1500	–
O=c1[nH]c(Cc2ccccc2OC(F)(F)F)nc2c1cnn2C1CCC(F)(F)CC1 [Example 3]	–	–	94	1 to 100	–
O=c1[nH]c(Cc2cc(F)ccc2-c2cccnc2)nc2c1cnn2C1CCC(F)(F)CC1 [Example 66]	–	–	100	1 to 100	–
CC(C)(C)OC(=O)NC1CCCC(n2ncc3c(=O)[nH]c(Cc4ccccc4OC(F)(F)F)nc32)C1 (mixture of isomers) [Example 18]	–	–	100	1 to 100	–
O=c1[nH]c(Cc2ccccc2-c2ccnc(F)c2)nc2c1cnn2C1CCC(F)(F)CC1 [Example 74]	–	–	98	1 to 100	–
Cn1cc(-c2cccnc2Cc2nc3c(cnn3C3CCC(F)(F)CC3)c(=O)[nH]2)cn1 [Example 94]	–	–	98	1 to 100	–

From US9079905B2, “Compounds for the treatment of CNS disorders” (Boehringer Ingelheim International GmbH, priority 2008, dated 2015)
